{"source": "patent US10168342B2", "about": "“Lipid probes and uses thereof” (THE SCRIPPS RESEARCH INSTITUTE, priority 2015, dated 2019)", "test_in_all_cases": "isoTOP-ABPP mapping of AEA-DA-modified peptides in Neuro2a cells", "assay_type_in_all_cases": "cell-based", "key": {"[1]": {"molecular_target": "T1, AEA-DA-modified peptides in Neuro2a cells (Mus musculus, UniProt O55022)", "T1 construct": "endogenous in cells; host or cells: Neuro2a", "T1 sequence (O55022 whole entry)": "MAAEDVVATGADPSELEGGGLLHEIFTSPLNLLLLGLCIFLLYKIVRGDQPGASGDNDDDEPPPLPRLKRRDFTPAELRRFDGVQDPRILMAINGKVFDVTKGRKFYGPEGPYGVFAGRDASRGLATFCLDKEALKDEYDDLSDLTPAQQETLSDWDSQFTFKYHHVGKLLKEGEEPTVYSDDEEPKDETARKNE", "conditions": "probe 100 μM, 12 replicates"}, "[2]": {"molecular_target": "T2, AEA-DA-modified peptides in Neuro2a cells (Mus musculus, UniProt Q791V5)", "T2 construct": "endogenous in cells; host or cells: Neuro2a", "T2 sequence (Q791V5 whole entry)": "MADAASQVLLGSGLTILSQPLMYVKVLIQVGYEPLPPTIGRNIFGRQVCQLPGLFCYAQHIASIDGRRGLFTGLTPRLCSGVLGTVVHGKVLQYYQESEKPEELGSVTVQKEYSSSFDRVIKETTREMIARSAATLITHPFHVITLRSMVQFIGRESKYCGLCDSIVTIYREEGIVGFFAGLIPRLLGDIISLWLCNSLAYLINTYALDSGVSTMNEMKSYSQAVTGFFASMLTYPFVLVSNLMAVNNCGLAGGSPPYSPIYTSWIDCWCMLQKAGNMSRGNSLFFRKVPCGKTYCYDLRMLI", "conditions": "AEA-DA-modified peptide MTCH2 Q791V5 91-112, SEQ ID NO 62; probe 100 μM, 12 replicates"}, "[3]": {"molecular_target": "T3, AEA-DA-modified peptides in Neuro2a cells (Mus musculus, UniProt Q8CIV2)", "T3 construct": "endogenous in cells; host or cells: Neuro2a", "T3 sequence (Q8CIV2 whole entry)": "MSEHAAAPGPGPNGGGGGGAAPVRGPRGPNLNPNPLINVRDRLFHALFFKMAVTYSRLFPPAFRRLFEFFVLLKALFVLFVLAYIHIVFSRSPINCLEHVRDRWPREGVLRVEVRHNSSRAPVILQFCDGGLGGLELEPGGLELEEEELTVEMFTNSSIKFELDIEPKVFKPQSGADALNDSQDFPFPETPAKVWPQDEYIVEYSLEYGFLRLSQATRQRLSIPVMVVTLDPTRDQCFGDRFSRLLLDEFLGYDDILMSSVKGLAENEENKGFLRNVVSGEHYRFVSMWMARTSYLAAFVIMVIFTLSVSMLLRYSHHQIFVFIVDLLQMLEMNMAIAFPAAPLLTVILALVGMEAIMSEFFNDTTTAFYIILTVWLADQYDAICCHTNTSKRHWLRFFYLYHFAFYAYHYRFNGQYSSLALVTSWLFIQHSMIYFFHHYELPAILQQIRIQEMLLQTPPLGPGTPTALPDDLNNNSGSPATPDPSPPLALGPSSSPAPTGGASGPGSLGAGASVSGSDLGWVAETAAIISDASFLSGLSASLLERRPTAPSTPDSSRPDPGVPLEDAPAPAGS", "conditions": "AEA-DA-modified peptide ORF61 Q8CIV2 245-263, SEQ ID NO 75; probe 100 μM, 12 replicates"}, "[4]": {"molecular_target": "T4, AEA-DA-modified peptides in Neuro2a cells (Mus musculus, UniProt Q8R127)", "T4 construct": "endogenous in cells; host or cells: Neuro2a", "T4 sequence (Q8R127 whole entry)": "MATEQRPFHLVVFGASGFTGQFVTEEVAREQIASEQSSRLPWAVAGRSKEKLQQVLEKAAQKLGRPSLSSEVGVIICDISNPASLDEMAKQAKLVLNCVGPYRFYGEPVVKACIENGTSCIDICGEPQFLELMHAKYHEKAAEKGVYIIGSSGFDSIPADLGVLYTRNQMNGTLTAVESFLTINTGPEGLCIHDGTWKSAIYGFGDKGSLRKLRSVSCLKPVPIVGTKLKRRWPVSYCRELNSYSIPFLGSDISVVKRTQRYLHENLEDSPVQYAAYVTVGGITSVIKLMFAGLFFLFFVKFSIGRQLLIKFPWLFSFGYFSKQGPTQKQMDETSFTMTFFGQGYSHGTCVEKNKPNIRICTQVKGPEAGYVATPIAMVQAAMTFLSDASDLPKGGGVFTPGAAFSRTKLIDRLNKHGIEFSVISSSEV", "conditions": "AEA-DA-modified peptide SCCPDH Q8R127 145-168, SEQ ID NO 96; probe 100 μM, 12 replicates"}, "[5]": {"molecular_target": "T5, AEA-DA-modified peptides in Neuro2a cells (Mus musculus, UniProt Q91YE6)", "T5 construct": "endogenous in cells; host or cells: Neuro2a", "T5 sequence (Q91YE6 whole entry)": "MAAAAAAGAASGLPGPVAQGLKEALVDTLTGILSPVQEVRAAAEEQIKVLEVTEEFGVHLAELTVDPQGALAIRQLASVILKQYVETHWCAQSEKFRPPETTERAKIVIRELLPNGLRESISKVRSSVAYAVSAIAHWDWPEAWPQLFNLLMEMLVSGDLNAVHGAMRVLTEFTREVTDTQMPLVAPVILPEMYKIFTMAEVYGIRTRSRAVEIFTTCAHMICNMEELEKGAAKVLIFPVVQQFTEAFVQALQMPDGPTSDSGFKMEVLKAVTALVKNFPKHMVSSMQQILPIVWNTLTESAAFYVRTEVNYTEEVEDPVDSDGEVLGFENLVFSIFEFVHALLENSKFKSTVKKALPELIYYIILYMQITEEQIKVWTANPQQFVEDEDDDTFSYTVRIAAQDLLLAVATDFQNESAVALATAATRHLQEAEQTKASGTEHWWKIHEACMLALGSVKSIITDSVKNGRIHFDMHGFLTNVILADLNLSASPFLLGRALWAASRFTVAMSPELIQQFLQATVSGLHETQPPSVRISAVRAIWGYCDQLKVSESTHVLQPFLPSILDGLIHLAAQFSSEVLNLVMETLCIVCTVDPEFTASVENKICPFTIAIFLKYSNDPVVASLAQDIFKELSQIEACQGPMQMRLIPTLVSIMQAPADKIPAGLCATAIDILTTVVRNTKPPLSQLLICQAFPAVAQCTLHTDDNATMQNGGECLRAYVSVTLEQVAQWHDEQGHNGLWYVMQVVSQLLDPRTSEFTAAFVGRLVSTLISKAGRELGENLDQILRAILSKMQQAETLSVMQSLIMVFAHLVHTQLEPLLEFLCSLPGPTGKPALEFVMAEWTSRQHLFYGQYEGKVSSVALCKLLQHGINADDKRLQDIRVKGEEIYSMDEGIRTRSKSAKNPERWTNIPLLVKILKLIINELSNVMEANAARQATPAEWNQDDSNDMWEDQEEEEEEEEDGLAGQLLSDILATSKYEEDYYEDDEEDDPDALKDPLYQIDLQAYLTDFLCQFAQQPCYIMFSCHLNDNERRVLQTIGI", "conditions": "AEA-DA-modified peptide IPO9 Q91YE6 777-788, SEQ ID NO 54; probe 100 μM, 12 replicates"}, "[6]": {"molecular_target": "T6, AEA-DA-modified peptides in Neuro2a cells (Mus musculus, UniProt Q99JB2)", "T6 construct": "endogenous in cells; host or cells: Neuro2a", "T6 sequence (Q99JB2 29-353)": "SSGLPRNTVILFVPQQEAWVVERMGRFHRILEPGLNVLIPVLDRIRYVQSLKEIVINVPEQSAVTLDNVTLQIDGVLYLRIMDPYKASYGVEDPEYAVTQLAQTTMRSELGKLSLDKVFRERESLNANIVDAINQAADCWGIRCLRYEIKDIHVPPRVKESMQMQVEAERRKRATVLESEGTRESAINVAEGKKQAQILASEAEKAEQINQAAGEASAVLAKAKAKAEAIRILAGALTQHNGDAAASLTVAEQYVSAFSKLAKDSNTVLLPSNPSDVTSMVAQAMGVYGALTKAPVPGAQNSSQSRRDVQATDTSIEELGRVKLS", "conditions": "AEA-DA-modified peptide STOML2 Q99JB2 292-322, SEQ ID NO 107; probe 100 μM, 12 replicates"}, "[7]": {"molecular_target": "T7, AEA-DA-modified peptides in Neuro2a cells (Mus musculus, UniProt Q99LR1)", "T7 construct": "endogenous in cells; host or cells: Neuro2a", "T7 sequence (Q99LR1 whole entry)": "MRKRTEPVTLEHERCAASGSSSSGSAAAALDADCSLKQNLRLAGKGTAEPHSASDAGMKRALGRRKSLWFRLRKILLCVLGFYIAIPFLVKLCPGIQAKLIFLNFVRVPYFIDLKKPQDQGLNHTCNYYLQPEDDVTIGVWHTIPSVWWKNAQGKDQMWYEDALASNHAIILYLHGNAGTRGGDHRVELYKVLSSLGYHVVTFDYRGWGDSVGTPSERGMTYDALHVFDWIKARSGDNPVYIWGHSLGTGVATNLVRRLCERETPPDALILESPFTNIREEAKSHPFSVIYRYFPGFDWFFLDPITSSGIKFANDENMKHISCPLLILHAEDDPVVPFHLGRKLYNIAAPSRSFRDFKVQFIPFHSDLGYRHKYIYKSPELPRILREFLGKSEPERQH", "conditions": "AEA-DA-modified peptide ABHD12 Q99LR1 263-284, SEQ ID NO 1; probe 100 μM, 12 replicates"}, "[8]": {"molecular_target": "T8, AEA-DA-modified peptides in Neuro2a cells (Mus musculus, UniProt Q9D379)", "T8 construct": "endogenous in cells; host or cells: Neuro2a", "T8 sequence (Q9D379 whole entry)": "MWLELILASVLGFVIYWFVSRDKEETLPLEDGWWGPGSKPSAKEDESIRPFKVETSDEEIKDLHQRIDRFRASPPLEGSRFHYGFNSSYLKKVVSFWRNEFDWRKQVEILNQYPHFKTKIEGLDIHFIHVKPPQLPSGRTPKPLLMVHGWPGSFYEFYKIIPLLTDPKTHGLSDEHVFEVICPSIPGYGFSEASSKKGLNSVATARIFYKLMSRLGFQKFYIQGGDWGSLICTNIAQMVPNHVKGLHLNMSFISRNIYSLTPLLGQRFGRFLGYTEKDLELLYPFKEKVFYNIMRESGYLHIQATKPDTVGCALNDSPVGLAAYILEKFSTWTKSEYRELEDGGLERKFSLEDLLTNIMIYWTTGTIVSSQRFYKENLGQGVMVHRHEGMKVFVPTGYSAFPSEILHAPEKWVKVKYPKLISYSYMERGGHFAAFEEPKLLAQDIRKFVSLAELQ", "conditions": "AEA-DA-modified peptide EPHX1 Q9D379 296-329, SEQ ID NO 39; probe 100 μM, 12 replicates"}, "[9]": {"molecular_target": "T9, AEA-DA-modified peptides in Neuro2a cells (Mus musculus, UniProt Q9DBL9)", "T9 construct": "endogenous in cells; host or cells: Neuro2a", "T9 sequence (Q9DBL9 whole entry)": "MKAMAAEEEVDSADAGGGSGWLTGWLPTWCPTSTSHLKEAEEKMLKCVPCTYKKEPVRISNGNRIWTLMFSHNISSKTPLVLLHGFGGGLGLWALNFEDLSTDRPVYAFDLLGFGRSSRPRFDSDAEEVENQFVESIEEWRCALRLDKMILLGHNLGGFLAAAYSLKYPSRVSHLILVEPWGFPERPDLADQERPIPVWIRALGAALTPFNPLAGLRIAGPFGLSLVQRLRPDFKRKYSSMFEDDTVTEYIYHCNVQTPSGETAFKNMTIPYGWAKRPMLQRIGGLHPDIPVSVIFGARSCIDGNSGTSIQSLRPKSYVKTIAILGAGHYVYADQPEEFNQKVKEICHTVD", "conditions": "AEA-DA-modified peptide ABHD5 Q9DBL9 321-343, SEQ ID NO 2; probe 100 μM, 12 replicates"}, "[10]": {"molecular_target": "T10, AEA-DA-modified peptides in Neuro2a cells (Mus musculus, UniProt Q9JKF7)", "T10 construct": "endogenous in cells; host or cells: Neuro2a", "conditions": "AEA-DA-modified peptide MRPL39 Q9JKF7 154-166, SEQ ID NO 61; probe 100 μM, 12 replicates"}, "[11]": {"molecular_target": "T11, AEA-DA-modified peptides in Neuro2a cells (Mus musculus, UniProt Q9Z2R6)", "T11 construct": "endogenous in cells; host or cells: Neuro2a", "conditions": "AEA-DA-modified peptide UNC119 Q9Z2R6 131-140, SEQ ID NO 117; probe 100 μM, 12 replicates"}}, "data": [{"smiles": "C#CCCCC1(CC/C=C\\C/C=C\\C/C=C\\CCCC(=O)NCCO)N=N1", "note": "[AEA-DA, (5Z,8Z,11Z)-N-(2-hydroxyethyl)-14-(3-(pent-4-yn-1-yl)-3H-diazirin-3-yl)tetradeca-5,8,11-trienamide]", "values": [{"measurement": "Times observed", "setting": "[1]; AEA-DA-modified peptide PGRMC1 O55022 48-68, SEQ ID NO 82", "result": 2}, {"measurement": "Times observed", "setting": "[1]; AEA-DA-modified peptide PGRMC1 O55022 106-120, SEQ ID NO 81", "result": 12}, {"measurement": "Times observed", "setting": "[2]", "result": 2}, {"measurement": "Times observed", "setting": "[3]", "result": 4}, {"measurement": "Times observed", "setting": "[4]", "result": 11}, {"measurement": "Times observed", "setting": "[5]", "result": 3}, {"measurement": "Times observed", "setting": "[6]", "result": 2}, {"measurement": "Times observed", "setting": "[7]", "result": 2}, {"measurement": "Times observed", "setting": "[8]", "result": 8}, {"measurement": "Times observed", "setting": "[9]", "result": 6}, {"measurement": "Times observed", "setting": "[10]", "result": 4}, {"measurement": "Times observed", "setting": "[11]", "result": 3}]}]}
